Tested on: L1210
Test: Tumor cell selectivity determined as maximal percent increase in life span (ILSmax) at LD10 dosage level in L1210 cells
Type: functional, Mus musculus

| Structure (SMILES) | ILSmax |
| --- | --- |
| CCCCS(=O)(=O)Nc1ccc(Nc2c3ccccc3nc3cc(NC(C)=O)ccc23)cc1 | 83% |
| COc1ccc(Nc2c3ccccc3nc3ccccc23)c(NS(C)(=O)=O)c1 | 50% |
| CN(c1ccc(Nc2c3ccccc3nc3ccccc23)cc1)S(C)(=O)=O | 65% |
| COc1ccc2nc3cc(N)ccc3c(Nc3ccc(NS(C)(=O)=O)cc3)c2c1 | 25% |
| NC(=O)CCCCCc1ccc(Nc2c3ccccc3nc3ccccc23)cc1 | 97% |
| O=[N+]([O-])c1ccccc1Nc1c2ccccc2nc2ccccc12 | 25% |
| COc1cc(NS(C)(=O)=O)ccc1Nc1c2cccc(C)c2nc2c(C)c([N+](=O)[O-])ccc12 | 56% |
| COc1ccc2nc3cc(NC(C)=O)ccc3c(Nc3ccc(NS(C)(=O)=O)cc3)c2c1 | 25% |
| N#CC(C#N)=Cc1ccc(Nc2c3ccccc3nc3ccccc23)cc1 | 65% |
| O=[N+]([O-])c1ccc(S(=O)(=O)Nc2ccc(Nc3c4ccccc4nc4cc([N+](=O)[O-])ccc34)cc2)cc1 | 200% |
| CCCCNc1ccc(Nc2c3ccccc3nc3ccccc23)cc1 | 25% |
| CS(=O)(=O)Nc1ccc(Nc2c3ccccc3nc3ccccc23)cc1Cl | 25% |
| COc1cc(NS(C)(=O)=O)ccc1Nc1c2ccccc2nc2c(C(=O)NCC(O)CO)cccc12 (stereo unspecified) | 83% |
| CCOc1ccccc1Nc1c2ccccc2nc2ccccc12 | 25% |
| CCN(CC)c1ccc(Nc2c3ccccc3nc3ccccc23)cc1 | 25% |
| O=C(O)c1ccc(Nc2c3ccccc3nc3c(OCC(O)CO)cccc23)cc1 (stereo unspecified) | 170% |
| CCCS(=O)(=O)Nc1ccc(Nc2c3ccccc3nc3cc(NC(C)=O)ccc23)cc1 | 115% |
| Cc1ccc2c(Nc3ccc(NS(C)(=O)=O)cc3)c3cccc(C)c3nc2c1 | 70% |
| CC(Oc1ccc(Nc2c3ccccc3nc3ccccc23)cc1)C(=O)O (stereo unspecified) | 25% |
| COC(=O)N(c1ccc(Nc2c3ccccc3nc3cc(NC(C)=O)ccc23)cc1)S(C)(=O)=O | 125% |
| CC(=O)Nc1ccccc1Nc1c2ccccc2nc2ccccc12 | 25% |
| COc1ccc2nc3cc([N+](=O)[O-])ccc3c(Nc3ccc(NS(C)(=O)=O)cc3)c2c1 | 55% |
| NCCCCCc1ccc(NC(=O)Nc2ccc(N=c3c4ccccc4[nH]c4ccccc34)cc2)cc1 | 170% |
| CCCCCCC(=O)N(c1ccc(Nc2c3ccccc3nc3cc(NC(C)=O)ccc23)cc1)S(C)(=O)=O | 100% |

| Structure (SMILES) | ILSmax |
| --- | --- |
| CC(=O)c1ccc(N=c2c3ccccc3[nH]c3cc(N)ccc23)cc1 | 52% |
| NCCC(=O)NCCS(=O)(=O)Nc1ccc(Nc2c3ccccc3nc3ccccc23)cc1 | 25% |
| O=C(O)CCCCCc1ccc(Nc2c3ccccc3nc3ccccc23)cc1 | 200% |
| COc1cc(NS(C)(=O)=O)ccc1Nc1c2ccccc2nc2cc(C(F)(F)F)c(N)cc12 | 90% |
| CC(C)(C)c1ccccc1Nc1c2ccccc2nc2ccccc12 | 25% |
| CCN(CC)/N=N/c1ccc2c(Nc3ccc(NS(C)(=O)=O)cc3)c3ccccc3nc2c1 | 95% |
| Cc1cc(NS(C)(=O)=O)ccc1Nc1c2ccccc2nc2cc([N+](=O)[O-])ccc12 | 70% |
| CCS(=O)(=O)Nc1ccc(Nc2c3ccccc3nc3cc(C)ccc23)cc1 | 84% |
| CC(=O)Nc1ccc2c(Nc3ccc(NS(C)(=O)=O)cc3)c3ccc(Cl)cc3nc2c1 | 60% |
| CS(=O)(=O)Nc1ccc(Nc2c3cc(N)ccc3nc3ccc(N)cc23)cc1 | 35% |
| CCS(=O)(=O)Nc1ccc(Nc2c3ccccc3nc3c(C(N)=O)cccc23)c(OC)c1 | 166% |
| COc1cc(NS(C)(=O)=O)ccc1Nc1c2ccc(I)cc2nc2c(OC)cccc12 | 100% |
| COc1cc(NS(C)(=O)=O)ccc1Nc1c2ccccc2nc2cc(C)ccc12 | 168% |
| NCC(=O)NCCS(=O)(=O)Nc1ccc(Nc2c3ccccc3nc3cc([N+](=O)[O-])ccc23)cc1 | 170% |
| CS(=O)(=O)Nc1ccc(Nc2c3ccccc3nc3cc(Cl)c(N)cc23)cc1 | 140% |
| COc1cc(NS(C)(=O)=O)ccc1Nc1c2ccccc2nc2cc(C#N)ccc12 | 93% |
| O=C(O)CCCCCCCCCc1ccc(Nc2c3ccccc3nc3ccccc23)cc1 | 75% |
| CC(=O)Nc1ccc2c(Nc3ccc(N(C(=O)C(C)C)S(C)(=O)=O)cc3)c3ccccc3nc2c1 | 140% |
| O=C(O)CCCCc1ccc(NC(=O)Nc2ccc(N=c3c4ccccc4[nH]c4ccccc34)cc2)cc1 | 80% |
| CCOC(=O)N1CCN(C(=O)Nc2ccc(Nc3c4ccccc4nc4ccccc34)cc2)CC1 | 50% |
| CCc1ccc2c(Nc3ccc(CC(=O)O)cc3)c3ccccc3nc2c1 | 200% |
| OC[C@@H]1O[C@H](Oc2ccc(Nc3c4ccccc4nc4ccccc34)cc2)[C@@H](O)[C@H](O)[C@H]1O | 60% |
| NCCS(=O)(=O)Nc1ccc(Nc2c3ccccc3nc3ccccc23)cc1 | 25% |
| Cc1cccc2c(Nc3ccc(NS(=O)(=O)c4ccc(N)cc4)cc3)c3ccccc3nc12 | 55% |

| Structure (SMILES) | ILSmax |
| --- | --- |
| COc1ccc2c(Nc3ccc(NS(C)(=O)=O)cc3)c3cccc(C)c3nc2c1 | 75% |
| CS(=O)(=O)Nc1ccc(Nc2c3ccccc3nc3ccccc23)c(O)c1 | 85% |
| Nc1ccc2c(Nc3ccc(NC(=O)c4ccccc4)cc3)c3ccccc3nc2c1 | 115% |
| O=C(O)Cc1ccccc1Nc1c2ccccc2nc2ccccc12 | 25% |
| NCCCCCCc1ccc(N=c2c3ccccc3[nH]c3cc([N+](=O)[O-])ccc23)cc1 | 25% |
| Nc1ccc(CCS(=O)(=O)Nc2ccc(Nc3c4ccccc4nc4ccccc34)cc2)cc1 | 25% |
| NCCCCc1ccc(NC(=O)Nc2ccc(N=c3c4ccccc4[nH]c4ccccc34)cc2)cc1 | 170% |
| CCC(CC)C(=O)Nc1ccc(Nc2c3ccccc3nc3ccccc23)cc1 | 90% |
| CS(=O)(=O)Nc1ccc(Nc2c3ccccc3nc3cc([N+](=O)[O-])ccc23)cc1 | 69% |
| COc1cc(NS(C)(=O)=O)ccc1Nc1c2cccc(C)c2nc2c(C)c(N)ccc12 | 80% |
| CCCC(=O)N(c1ccc(Nc2c3ccc([N+](=O)[O-])cc3nc3c(C)cccc23)cc1)S(C)(=O)=O | 85% |
| CS(=O)(=O)Nc1ccc(Nc2c3ccccc3nc3cc(I)ccc23)cc1 | 160% |
| CCCCOc1cccc2c(Nc3ccc(NS(C)(=O)=O)cc3OC)c3ccccc3nc12 | 80% |
| CCCCCCCCS(=O)(=O)Nc1ccc(Nc2c3ccccc3nc3ccccc23)c(OC)c1 | 40% |
| Cc1cc(C(=O)O)ccc1Nc1c2ccccc2nc2ccccc12 | 25% |
| O=C(O)c1ccc(/C=C/c2ccc(Nc3c4ccccc4nc4ccccc34)cc2)cc1 | 158% |
| CCC(=O)N(c1ccc(Nc2c3ccc([N+](=O)[O-])cc3nc3c(C)cccc23)c(OC)c1)S(C)(=O)=O | 72% |
| CCS(=O)(=O)Nc1ccc(Nc2c3ccccc3nc3c(C)cccc23)cc1 | 65% |
| CS(=O)(=O)Nc1ccc(Nc2c3ccccc3nc3cc(N)ccc23)cc1 | 134% |
| CCS(=O)(=O)Nc1ccc(Nc2c3cccc(C)c3nc3c(C)cccc23)c(OC)c1 | 70% |
| Fc1ccccc1Nc1c2ccccc2nc2ccccc12 | 25% |
| c1ccc2c(Nc3ccc(N4CCNCC4)cc3)c3ccccc3nc2c1 | 25% |
| Cc1ccc2c(Nc3ccc(NS(C)(=O)=O)cc3)c3ccccc3nc2c1 | 85% |
